Measurements reported in ChEMBL document CHEMBL4261551, “Click chemistry-assisted synthesis of triazolo linked podophyllotoxin conjugates as tubulin polymerization inhibitors” (Medchemcomm, 2017).
Active and inactive are the calls of the source. The rule behind the calls is not given here.

Tests used:
B16 = assay: Cytotoxicity against […] cells after 48 hrs by MTT assay; type: functional, cell-based; settings: Mus musculus, B16, 48 h
MCF7 = assay: cells; settings: Homo sapiens, MCF7, 48 h
Description: Cytotoxicity against human MCF7 cells after 48 hrs by MTT assay

HT-29 = assay: Cytotoxicity against human HT-29 cells after 48 hrs by MTT assay; type: functional, cell-based; settings: HT-29, 48 h
HeLa [1] = assay: cells; settings: Homo sapiens, 48 h
Description: Cytotoxicity against human HeLa cells after 48 hrs by MTT assay

HeLa [2] = assay: Cell cycle arrest in human HeLa cells assessed as accumulation at G2/M phase at 0.5 uM after 48 hrs by propidium iodide staining based flow cytometry (reference value: 19.3%); type: functional
HeLa [3] = assay: Cell cycle arrest in human HeLa cells assessed as accumulation at S phase at 0.5 uM after 48 hrs by propidium iodide staining based flow cytometry (reference value: 11.3%); type: functional
HeLa [4] = assay: Induction of apoptosis in human HeLa cells assessed as caspase-3 activation at 0.5 uM after 48 hrs by fluorimetric method relative to control; type: functional
Sus scrofa = organism: Sus scrofa; assay: Inhibition of porcine brain tubulin polymerization at 3 uM after 1 hr by fluorescence assay relative to control
Tubulin (Homo sapiens) = Tubulin (Homo sapiens) (UniProt P68371+Q9H4B7+P0DPH7+P68366+Q13509+Q71U36+P04350+Q3ZCM7+P07437+P68363+Q9BQE3+Q6PEY2+Q13885+Q9BVA1+Q9BUF5); assay: Inhibition of tubulin polymerization in human HeLa cells assessed as disrupted microtubule organization at 0.5 uM after 48 hrs by immunohistochemical analysis; type: cell-based
HeLa [5] = assay: Induction of apoptosis in human HeLa cells assessed as nuclear fragmentation at 0.5 uM after 48 hrs by Hoechst 33342 staining based fluorescent microscopic method; type: functional, cell-based
HeLa [6] = assay: Cell cycle arrest in human HeLa cells assessed as accumulation at G1 phase at 0.5 uM after 48 hrs by propidium iodide staining based flow cytometry (reference value: 62.5%); type: functional
HeLa [7] = assay: Induction of apoptosis in human HeLa cells assessed as […] condensation at 0.5 uM after 48 hrs by Hoechst 33342 staining based fluorescent microscopic method; type: functional, cell-based
HeLa [8] = assay: Cell cycle arrest in human HeLa cells assessed as accumulation at sub-G1 phase at 0.5 uM after 48 hrs by propidium iodide staining based flow cytometry (reference value: 0.9%); type: functional

COc1cc([C@@H]2c3cc4c(cc3[C@@H](NC(=O)Cn3cc(-c5ccccn5)nn3)[C@H]3COC(=O)[C@H]23)OCO4)cc(OC)c1OC
IC50 (B16): 19.5 µM | IC50 (MCF7): 14.5 µM | IC50 (HT-29): 18.4 µM | IC50 (HeLa [1]): 23.6 µM

COc1cc([C@@H]2c3cc4c(cc3[C@@H](NC(=O)Cn3cc(-c5ccccc5)nn3)[C@H]3COC(=O)[C@H]23)OCO4)cc(OC)c1OC
IC50 (B16): 21.5 µM | IC50 (MCF7): 8.1 µM | IC50 (HT-29): 20.1 µM | IC50 (HeLa [1]): 19.6 µM

COc1cc([C@@H]2c3cc4c(cc3[C@@H](NC(=O)Cn3cc(-c5ccc(C)cc5)nn3)[C@H]3COC(=O)[C@H]23)OCO4)cc(OC)c1OC
IC50 (B16): 23.5 µM | IC50 (MCF7): 17.1 µM | IC50 (HT-29): 22.5 µM | IC50 (HeLa [1]): 16.8 µM

COc1ccc(-c2cn(CC(=O)N[C@@H]3c4cc5c(cc4[C@@H](c4cc(OC)c(OC)c(OC)c4)[C@H]4C(=O)OC[C@@H]43)OCO5)nn2)cc1OC
IC50 (B16): 22.4 µM | IC50 (MCF7): 15.8 µM | IC50 (HT-29): 13.9 µM | IC50 (HeLa [1]): 17.9 µM

COc1cc([C@@H]2c3cc4c(cc3[C@@H](NC(=O)Cn3cc(CCC5C(=O)c6ccccc6C5=O)nn3)[C@H]3COC(=O)[C@H]23)OCO4)cc(OC)c1OC
IC50 (B16): 14.7 µM | IC50 (MCF7): 7.2 µM | IC50 (HT-29): 18.5 µM | IC50 (HeLa [1]): 2.6 µM

COc1cc([C@@H]2c3cc4c(cc3[C@@H](NC(=O)Cn3cc(-c5cccs5)nn3)[C@H]3COC(=O)[C@H]23)OCO4)cc(OC)c1OC
IC50 (B16): 18.2 µM | IC50 (MCF7): 8.9 µM | IC50 (HT-29): 19.5 µM | IC50 (HeLa [1]): 6.5 µM

COc1ccc2cc(-c3cn(CC(=O)N[C@@H]4c5cc6c(cc5[C@@H](c5cc(OC)c(OC)c(OC)c5)[C@H]5C(=O)OC[C@@H]54)OCO6)nn3)ccc2c1
IC50 (B16): 14.3 µM | IC50 (MCF7): 6.9 µM | IC50 (HT-29): 13.6 µM | IC50 (HeLa [1]): 15.4 µM

COc1cc([C@@H]2c3cc4c(cc3[C@@H](NC(=O)Cn3cc(-c5cccc(Cl)c5)nn3)[C@H]3COC(=O)[C@H]23)OCO4)cc(OC)c1OC
IC50 (B16): 23.6 µM | IC50 (MCF7): 38.2 µM | IC50 (HT-29): 17.5 µM | IC50 (HeLa [1]): 28.4 µM

COc1cc([C@@H]2c3cc4c(cc3[C@@H](NC(=O)Cn3cc(-c5ccc(Br)cc5)nn3)[C@H]3COC(=O)[C@H]23)OCO4)cc(OC)c1OC
IC50 (B16): 10.1 µM | IC50 (MCF7): 0.9 µM | Activity (HeLa [2]): 62.7% | IC50 (HT-29): 0.1 µM | Activity (HeLa [3]): 10.5% | IC50 (HeLa [1]): 0.07 µM | fold change (FC) (HeLa [4]): 4 - 6 | inhibition (Sus scrofa): 48.5% | inhibition (Tubulin (Homo sapiens)): Active | Activity (HeLa [5]): Active | Activity (HeLa [6]): 13.9% | Activity (HeLa [7]): Active | Activity (HeLa [8]): 0.1%

COc1cc([C@@H]2c3cc4c(cc3[C@@H](NC(=O)Cn3cc(-c5cccc(N)c5)nn3)[C@H]3COC(=O)[C@H]23)OCO4)cc(OC)c1OC
IC50 (B16): 22.5 µM | IC50 (MCF7): 21.9 µM | IC50 (HT-29): 15.6 µM | IC50 (HeLa [1]): 25.4 µM

COc1cc([C@@H]2c3cc4c(cc3[C@@H](O[C@@H]3O[C@@H]5CO[C@@H](C)O[C@H]5[C@H](O)[C@H]3O)[C@H]3COC(=O)[C@H]23)OCO4)cc(OC)c1O [ETOPOSIDE]
IC50 (B16): 1.85 µM | IC50 (MCF7): 1.36 µM | IC50 (HT-29): 1.98 µM | IC50 (HeLa [1]): 2.24 µM

COc1cc([C@@H]2c3cc4c(cc3[C@@H](NC(=O)Cn3cc(-c5cncn5C)nn3)[C@H]3COC(=O)[C@H]23)OCO4)cc(OC)c1OC
IC50 (B16): 10.8 µM | IC50 (MCF7): 22.4 µM | IC50 (HT-29): 10.6 µM | IC50 (HeLa [1]): 2.3 µM

COc1cc([C@@H]2c3cc4c(cc3[C@@H](NC(=O)Cn3cc(-c5ccc(C(C)(C)C)cc5)nn3)[C@H]3COC(=O)[C@H]23)OCO4)cc(OC)c1OC
IC50 (B16): 10.6 µM | IC50 (MCF7): 11.3 µM | Activity (HeLa [2]): 63.3% | IC50 (HT-29): 18.6 µM | Activity (HeLa [3]): 10.1% | IC50 (HeLa [1]): 0.9 µM | fold change (FC) (HeLa [4]): 4 - 6 | inhibition (Sus scrofa): 46.4% | inhibition (Tubulin (Homo sapiens)): Active | Activity (HeLa [5]): Active | Activity (HeLa [6]): 12.5% | Activity (HeLa [7]): Active | Activity (HeLa [8]): 0.2%

COc1cc([C@@H]2c3cc4c(cc3[C@H](O)[C@H]3COC(=O)[C@H]23)OCO4)cc(OC)c1OC [PODOFILOX]
IC50 (B16): 2.12 µM | IC50 (MCF7): 3.75 µM | IC50 (HT-29): 1.26 µM | IC50 (HeLa [1]): 2.36 µM | Activity (HeLa [4]): Active | inhibition (Sus scrofa): 50.2%
